Test results reported in patent US20090306612A1, “ABSORBENT ARTICLE” (SCA HYGIENE PRODUCTS AB, priority 2006, published 2009).

Columns and labels:
Assay type in all cases: cell-based
E. faecalis = experiment: Bacterial growth in absorbent cores (method 4), E. faecalis
Experimental: (§1) 16 ml (corresponding to a maximum absorption capacity of a test specimen according to method 1) of test liquid 1 containing the bacteria were added to a test specimen placed in plastic tubs, and a lid was fitted on the tubs. The tubs were turned upside down and incubated in a warm cabinet at 35° C. After incubation for 0, 6 and 12 hours, the test samples were placed in a plastic bag with peptone water and the content was homogenized (agitated and worked up) in a stomacker for 3 minutes. The homogenate was diluted in dilution tubes with peptone water and a microbiological culture was spread on agar plates. Slanetz Bartley agar was used for E. faecalis, and Drigalski agar for E. coli and P. mirabilis. The specimens were incubated at 35° C. for 1-2 days before the colonies were counted and the log CFU/ml calculated. Control tests were also carried out with absorbent cores without NaCl.
(§2) Bacteria were cultured in nutrient broth and diluted to the desired concentration of about Log 3.3 in test liquid 1 (method 4). Absorbent test specimens were produced according to method 1. […] The bacterial growth was measured according to method 4.
(§3) Absorbent cores were produced according to method 1. […] The bacterial growth of E. coli, P. mirabilis and E. faecalis was measured after 0, 6 and 12 hours according to method 4. […]

P. mirabilis = experiment: Bacterial growth in absorbent cores (method 4), P. mirabilis
Experimental: as §1, §2, §3

E. coli = experiment: Bacterial growth in absorbent cores (method 4), E. coli
Experimental: as §1, §2, §3

Proteus mirabilis = experiment: Ammonia formation in absorbent cores (method 3); settings: Example 2, FIG. 5; specimen containing 29% by weight of NaCl; after 6 and 8 hours
Experimental: Absorbent test specimens were produced according to method 1. A bacterial suspension of Proteus mirabilis was cultured in nutrient solution at 30° C. overnight. The grafted cultures were diluted with test liquid 1 and the quantity of bacteria was determined. The final culture contained approximately 10^5 organisms per ml of test liquid. The absorbent core was placed in a plastic tub and test liquid 1 containing bacteria was added to the absorbent core, after which the container was incubated at 35° C. for 4, 6 and 8 hours, and then the specimens were removed from the container using a hand pump and a so-called Drager tube. The ammonia content was obtained as a color change on a scale graduated in ppm or percent by volume.
Absorbent test specimens were produced according to method 1. 16 ml, maximum absorption capacity, of test liquid 1 containing bacteria were added to a test specimen. 29 (high), 22 (medium) and 12 (low) % by weight of NaCl (% dry) and 22 (medium) % by weight of CaCl2 (% dry) were added to the core. The quantity of developed ammonia was measured according to method 3 after 6 and 8 hours. […]
Absorbent test specimens were produced according to method 1. […] The quantity of added pH-reducing substance was 5% by weight of the pulp. […] The quantity of developed ammonia was measured according to method 3 after 6 and 8 hours.

[1] = 3% added salt (% wet) = 29% by weight (% dry), NaCl high in FIG. 4, 12 hours, 35° C., 16 ml test liquid 1 (maximum load), start about Log 3.3, method counts log CFU/ml
[2] = Example 1, FIG. 4, 29, 22 and 12% by weight NaCl (% dry), after 6 and 12 hours, inhibition better with higher salt content

SMILES: [Cl-].[Na+] [NaCl]
- growth of E. faecalis after 12 hours (E. faecalis; [1]): < 5.5 log
- growth of E. faecalis compared with the control tests (E. faecalis; [2]): lower
- growth of P. mirabilis after 12 hours (P. mirabilis; [1]): < 5.5 log
- growth of P. mirabilis compared with the control tests (P. mirabilis; [2]): lower
- growth of E. coli after 12 hours (E. coli; [1]): < 5.5 log
- growth of E. coli compared with the control tests (E. coli; [2]): lower
- development of NH3, ranking among the specimens (Proteus mirabilis): lowest development of NH3
